We go through 3 compounds from EP0033042A1, “Ophthalmic inserts for lowering intraocular pressure comprising carbonic anhydrase inhibitors” (Merck & Co., Inc., priority 1980, dated 1981).

Counter-ions that a name gives are not always drawn.

In test [1] the test system is NORMAL INTRAOCULAR PRESSURE IN UNANESTHETIZED RABBITS. Kind of test: Topical administration, effect on normal intraocular pressure in unanesthetized rabbits. It is filed as in vivo. To be noted: 12.1 % by wt., 50μl in both eyes, in 0.5% hydroxyethylcellulose.
Test [2] deals with INTRAOCULAR PRESSURE (IOP) IN RABBITS WITH ALPHA CHYMOTRYPSIN-INDUCED OCULAR HYPERTENSION
Kind of test: Topical administration, effect on IOP in rabbits with alpha chymotrypsin-induced ocular hypertension (tonometry). It counts as in vivo. To be noted: for Change in IOP (mm Hg) After Drug Administration: 12.1 % by wt., 50µl of 0.5% hydroxyethylcellulose; for Change in IOP (mm Hg) After Drug Administration / IOP (mm Hg) t=0 min.: mean ± standard deviation, Table III; for IOP (mm Hg) t=0 min.: immediately prior the drug administration (served as control), 9 eyes; for mean ΔP (mean of ΔP versus IOP at t0): 8 animals; for mean ΔP (mean of ΔP versus IOP at t0) / Intraocular pressure, mean ± stand deviation: 50μl in 0.5% hydroxyethyl cellulose; for Intraocular pressure, mean ± stand deviation: mean of 8 animals.

Setting [3] is: 0 min after instillation (baseline), 14 eyes.

On to `NS(=O)(=O)c1cc(Cl)c(Cl)c(S(N)(=O)=O)c1` [Dichlorphenamide Dipotassium salt, 4,5-Dichloro-m-benzenedisulfon-amide dipotassium salt . hemihydrate], for which the “Mean Intraocular Pressure ± SD” value is recorded as 20±1.8 mm Hg in test [1] (setting [3]); 18±2.4 mm Hg in test [1] (30 min after instillation); 18±2.4 mm Hg in test [1] (60 min after instillation); 17±2.1 mm Hg in test [1] (120 min after instillation); 15±2.4 mm Hg in test [1] (180 min after instillation); 17±1.8 mm Hg in test [1] (240 min after instillation). In addition, in test [1] (300 min after instillation), the “Mean Intraocular Pressure ± SD” value is 20±2.6 mm Hg. Further, the “Change in IOP (mm Hg) After Drug Administration” value (shortened to “Change in IOP”) was -1±5.3 mm Hg in test [2] (30 min); -4±3.8 mm Hg in test [2] (60 min); -7±6.2 mm Hg in test [2] (120 min); -6±6.8 mm Hg in test [2] (180 min); -4±6.2 mm Hg in test [2] (240 min); -3±6.7 mm Hg in test [2] (300 min). The “IOP (mm Hg) t=0 min.” value in test [2] turned out to be 38±5.9 mm Hg.

Turning to `CC(=O)N=c1sc(S(N)(=O)=O)nn1C.[Na]` [Methazolamide Sodium salt, N-[5-(aminosulfonyl)-3-methyl-1,3,4-thiadiazol-2(3H)-ylidene]acetamide Sodium Salt], the “Mean Intraocular Pressure ± SD” value in test [1] (setting [3]) is on record as 20±1.9 mm Hg; in test [1] (30 min after instillation), 20±3.0 mm Hg; in test [1] (60 min after instillation), 20±2.7 mm Hg; in test [1] (120 min after instillation), 19±3.3 mm Hg; in test [1] (180 min after instillation), 18±2.7 mm Hg; in test [1] (240 min after instillation) it was 20±3.4 mm Hg. Besides, the “Mean Intraocular Pressure ± SD” value in test [1] (300 min after instillation) came to 20±2.8 mm Hg. In addition, the “mean ΔP (mean of ΔP versus IOP at t0)” value in test [2] (30 min.) is on record as -3.1±4.58 mm Hg; in test [2] (60 min.) it was -5.1±4.68 mm Hg; in test [2] (120 min.), -5.6±6.02 mm Hg; in test [2] (180 min.), -6.8±3.70 mm Hg; in test [2] (240 min.), -5.4±5.42 mm Hg; in test [2] (300 min.), -6.9±6.27 mm Hg. For the same compound, the “Change in IOP” value was -3±4.6 mm Hg in test [2] (30 min); -5±4.7 mm Hg in test [2] (60 min); -6±6.0 mm Hg in test [2] (120 min); -7±3.7 mm Hg in test [2] (180 min); -5±5.4 mm Hg in test [2] (240 min); -7±6.3 mm Hg in test [2] (300 min). For the same compound, the “IOP (mm Hg) t=0 min.” value in test [2] is recorded as 39±7.7 mm Hg. Also, the “Intraocular pressure, mean ± stand deviation” value in test [2] (0 min. (baseline)) was 39.1±7.72 mm Hg; in test [2] (30 min.) it was 36.0±8.09 mm Hg; in test [2] (60 min.), 34.0±7.37 mm Hg; in test [2] (120 min.), 33.5±8.91 mm Hg; in test [2] (180 min.), 32.4±6.05 mm Hg; in test [2] (240 min.) it was 33.8±7.91 mm Hg. For the same compound, the “Intraocular pressure, mean ± stand deviation” value in test [2] (300 min.) stood at 32.3±7.67 mm Hg.

Regarding `CC(=O)Nc1nnc(S(N)(=O)=O)s1.[K].[K]` [Acetazolamide Dipotassium salt, N-[5-(aminosulfonyl)-1,3,4-thiadiazol-2-yl]acetamide dipotassium salt], the “Mean Intraocular Pressure ± SD” value was determined as 19±1.3 mm Hg in test [1] (setting [3]); 19±1.3 mm Hg in test [1] (30 min after instillation); 20±1.4 mm Hg in test [1] (60 min after instillation); 19±1.9 mm Hg in test [1] (120 min after instillation); 19±1.9 mm Hg in test [1] (180 min after instillation); 20±1.8 mm Hg in test [1] (240 min after instillation). For the same compound, the “Mean Intraocular Pressure ± SD” value in test [1] (300 min after instillation) was determined as 21±1.7 mm Hg. Moreover, the “Change in IOP” value was -1±3.1 mm Hg in test [2] (30 min); -3±4.8 mm Hg in test [2] (60 min); -5±4.6 mm Hg in test [2] (120 min); -6±5.3 mm Hg in test [2] (180 min); -6±5.3 mm Hg in test [2] (240 min); -3±6.5 mm Hg in test [2] (300 min). Moreover, the “IOP (mm Hg) t=0 min.” value in test [2] amounted to 37±6.4 mm Hg.
